The test system of test [1] is Pentyleneterazole-Induced Convulsion. Kind of test: Antagonism of Pentyleneterazole-Induced Convulsion (agonistic activity). In kind it is in vivo, male mice. As to conditions: Mus musculus; intravenous; mice; pentylenetetrazole 125 mg/kg, s.c.; 2-h observation; probit; read-out: ED50 (prevention of tonic convulsion and death). As for the experimental part:
Antagonism of Pentyleneterazole-Induced Convulsion
Agonistic activity was evaluated in this test. Groups of 8-16 male mice were challenged with a dose of 125 mg/kg, s.c. of pentylenetetrazole immediately after intravenous injection of the test compound. The dose required to prevent tonic convulsion and death in 50% of the animal during a 2-h observation period was calculated by the probit method.

A further test concerns the target benzodiazepine receptor. Put plainly: Binding Test to Benzodiazepine Receptor (inhibition of tritium labeled diazepam binding). As to conditions: 2nM tritium labeled diazepam; rat cerebral cortex; 0° C., 6 minutes; calculated from IC50. On the set-up: species or system Wistar rats. On the procedure:
Binding Test to Benzodiazepine Receptor
This test was carried out in the modified mehtod of Mohler et al. Science, 198, 849-851 (1977).
Receptor preparation was provided from the cerebral cortex of Wistar rats (male, 11 to 13 weeks age). Inhibitory action of the test compound on the specific binding of tritium labeled diazepam to the receptor was evaluated as follows. 2nM tritium labeled diazepam and an aqueous solution of the test compound at 5 or 6 concentrations were incubated with the receptor preparation at 0° C. for 6 minutes. The 50% inhibitory concentration (IC50) was measured by the concentration-response curve.
The inhibitory constant (Ki) was calculated according to the following equation, in which Kd is the dissociation constant of the tritium labeled diazepam and L is the concentration of the labeled ligand.

Test [2] relates to Pentylenetetrazole-Induced Convulsion. Put plainly: Potentiation of Pentylenetetrazole-Induced Convulsion (inverse agonist activity). Format: in vivo. To be noted: Mus musculus; intravenous; mice; pentylenetetrazole 90 mg/kg s.c. (subconvulsive); 2-h observation; probit; read-out: ED50 (production of tonic convulsion and death). On the procedure:
Potentiation of Pentylenetetrazole-Induced Convulsion
Inverse agonist activity was evaluated in this test. Groups of 8-16 mice were challenged with a dose of 90 mg/kg. s.c. of pentylenetetrazole (a subconvulsive dose) immidiately after intravenous injection of the test compound. The dose required to produce tonic convulsion and death in 50% of the animals during a 2-h observation period was calculated by the probit method.

The next test has as its system conflict behavior. Kind of test: Anticonflict Test. In kind it is in vivo. As to conditions: Rattus norvegicus; oral; male Wistar rats; 1 hour observation starting 30 minutes after administration; probit; read-out: Anti-conflict activity ED50. As for the experimental part:
The modified method of Geller and Seifter (Psychopharmacol, 1, 482, 1960) was employed. Groups of 5 or more male Wistar rats with well-established conflict behavior were used. A dose was determined as positive when the numbuer of electric shocks (punishment) exceeded more than 12 during a 1 hour observation period starting 30 minutes after oral administration of the test compound. The ED50 was calculated by the probit method.

The test system of test [3] is mice gripping the wire with hindpaws. Put plainly: Traction Test. Format: in vivo. As to conditions: Mus musculus, 0.5 h, read-out: Traction Test ED50. As for the experimental part:
The modified method of Courvoisier et al. (in "Psychotropic Drugs", ed. by S. Garattini & R. Ducrot. p 373. Elsevier Publishing Co., Amsterdam, 1957) was employed. Groups of 10 mice were made to hang onto a horizontal metal wire (diameter: 1 mm) by grasping and holding with their forepaws 30 minutes after oral administration of the test compound, and the number of mice gripping the wire with hindpaws within 10 sec was counted. The ED50 was calculated by the probit method.

The mark [4] stands for this setting: oral, mice, 30 minutes after administration, gripping within 10 sec, probit.

Where two headings read alike, the source gives them in different places.

Consider `Clc1ccc(-c2nc3cnc4ccccc4c3[nH]2)s1` [Compound C2], for which the 50% effective dose (ED50) in test [1] was determined as 16 mg/kg. The Ki on benzodiazepine receptor was 0.97 nM.
As for `Fc1ccc(-c2nc3cnc4ccccc4c3[nH]2)cc1` [Compound C3, 2-(4-fluorophenyl)-1H-imidazo[4,5-c]quinoline], the 50% effective dose (ED50) in test [1] amounted to 2.31 mg/kg. Moreover, the Ki at benzodiazepine receptor was 15.8 nM.
Regarding `COc1ccc(-c2nc3cnc4ccccc4c3[nH]2)cc1` [Compound C13], the 50% effective dose (ED50) in test [1] was determined as 4.61 mg/kg. Further, the Ki on benzodiazepine receptor is 8.73 nM.
For `Fc1cccc(-c2nc3cnc4ccccc4c3[nH]2)c1` [Compound C20], in that order: 3.9 mg/kg and 27.7 nM.
Consider `Fc1ccccc1-c1nc2cnc3ccccc3c2[nH]1` [Compound C21], for which the ED50 in test [1] came to 2.05 mg/kg. In addition, the Ki at benzodiazepine receptor was 1.8 nM.
`Clc1ccc2c(c1)ncc1nc(-c3cccs3)[nH]c12` [Compound C35]: the 50% effective dose (ED50) in test [2] amounted to 1.76 mg/kg. The inhibition constant Ki on benzodiazepine receptor is 19.5 nM.
In the case of `Cc1csc(-c2nc3cnc4cc(Cl)ccc4c3[nH]2)c1` [Compound C38], in test [1], the ED50 amounted to 8.52 mg/kg. At benzodiazepine receptor, the inhibition constant (Ki) is 15.6 nM.
For `Cc1cc(-c2nc3cnc4ccccc4c3[nH]2)on1` [Compound C45, 2-(3-methylisoxazol-5-yl)-1H-imidazo[4,5-c]quinoline], the 50% effective dose (ED50) in the test with conflict behavior is 2.68 mg/kg; in test [3] (setting [4]) it was more than 200 mg/kg; in test [1], 0.71 mg/kg. In addition, at benzodiazepine receptor, the Ki is 0.582 nM.
For the molecule `CCc1cc(-c2nc3cnc4ccccc4c3[nH]2)on1` [Compound C46], the median effective dose (ED50) in test [1] is 1.2 mg/kg. On benzodiazepine receptor, the Ki is 0.97 nM.
As to `Cc1cc(-c2nc3cnc4cc(F)ccc4c3[nH]2)on1` [Compound C48], the ED50 is 1.8 mg/kg with conflict behavior, more than 200 mg/kg in test [3] (setting [4]) and 0.59 mg/kg in test [1]. Moreover, the inhibition constant Ki on benzodiazepine receptor was 0.907 nM.
On to `Cc1cc(-c2nc3cnc4ccc(F)cc4c3[nH]2)on1` [Compound C49], for which the results for the ED50 (with conflict behavior; in test [3] (setting [4]); in test [1]) were 1.19 mg/kg, more than 200 mg/kg and 0.32 mg/kg, respectively. Further, the inhibitory constant (Ki) at benzodiazepine receptor is 0.237 nM.
On to `c1ccc2c(c1)ncc1nc(-c3ccon3)[nH]c12` [Compound C58], for which, in test [2], the ED50 stood at 1.65 mg/kg. In addition, the Ki at benzodiazepine receptor is 0.525 nM.
For the molecule `Clc1ccc2c(c1)ncc1nc(-c3ccon3)[nH]c12` [Compound C59], the ED50 in test [1] worked out at 3.01 mg/kg. In addition, at benzodiazepine receptor, the Ki was 1.23 nM.
In the case of `Fc1ccc2c(c1)ncc1nc(-c3ccon3)[nH]c12` [Compound C60], the inhibition constant Ki on benzodiazepine receptor was 0.495 nM.
For `Cc1cc(-c2nc3cnc4ccccc4c3[nH]2)no1` [Compound C61], the ED50 in test [1] was 0.74 mg/kg. On benzodiazepine receptor, the Ki is 0.661 nM.
For `Cc1cc(-c2nc3cnc4ccccc4c3[nH]2)ns1` [Compound C67], on benzodiazepine receptor, the Ki is 2.07 nM.
Same read-out and setting: the same measure for `Cc1cc(-c2nc3cnc4ccccc4c3[nH]2)sn1` [Compound C68]: 1.19 nM; for `c1ccc2c(c1)ncc1nc(-c3cnns3)[nH]c12` [Compound C70]: 5.4 nM.
As to `Cc1csc(-c2nc3cnc4ccccc4c3[nH]2)n1` [Compound C71], the ED50 in test [2] was determined as 4.18 mg/kg. Moreover, the Ki on benzodiazepine receptor was 4.57 nM.
Consider `Cc1cc2c(ncc3nc(-c4cccs4)[nH]c32)s1` [Compound F2, 2-(Thien-2-yl)-7-methyl-1H-imidazo[4,5-d]thieno[2,3-b]pyridine], for which the ED50 in test [2] came out at 0.13 mg/kg. Moreover, on benzodiazepine receptor, the Ki was 31.8 nM.
Take `c1csc(-c2nc3cnc4sccc4c3[nH]2)c1` [Compound F7]: the median effective dose (ED50) in test [2] was determined as 0.5 mg/kg. Besides, the Ki at benzodiazepine receptor was 725 nM.
The matching figures for `c1csc(-c2nc3cnc4ccsc4c3[nH]2)c1` [Compound K5]: 0.54 mg/kg and 10.1 nM.
On to `CN1C(=O)CN=C(c2ccccc2)c2cc(Cl)ccc21` [Diazepam, reference compound], for which the ED50 with conflict behavior was 1.05 mg/kg; in test [3] (po) it was 5.06 mg/kg.

These data come from patent US4753951A, “Condensed imidazopyridine derivatives useful as psychotropic agents” (Shionogi & Co., Ltd., priority 1985, dated 1988).
